Patent US20090111778A1, “2-Keto-Oxazoles as Modulators of Fatty Acid Amide Hydrolase” (priority 2005, published 2009)
Structures can show the parent of a compound that is named as a salt.

Tests used:
[1] = target: T1, rat FAAH (Rattus norvegicus, UniProt P97612); assay: Assay Method 2: FAAH assay, hydrolysis of 3H-anandamide by homogenate of SK-N-MC cells transfected with rat FAAH; format: biochemical; settings: T84 or transfected SK-N-MC cell homogenate, 3H-AEA tracer 80 nM, rt 1 h, pH 9
T1 construct: expressed in transfected cells
T1 sequence (P97612 1-579): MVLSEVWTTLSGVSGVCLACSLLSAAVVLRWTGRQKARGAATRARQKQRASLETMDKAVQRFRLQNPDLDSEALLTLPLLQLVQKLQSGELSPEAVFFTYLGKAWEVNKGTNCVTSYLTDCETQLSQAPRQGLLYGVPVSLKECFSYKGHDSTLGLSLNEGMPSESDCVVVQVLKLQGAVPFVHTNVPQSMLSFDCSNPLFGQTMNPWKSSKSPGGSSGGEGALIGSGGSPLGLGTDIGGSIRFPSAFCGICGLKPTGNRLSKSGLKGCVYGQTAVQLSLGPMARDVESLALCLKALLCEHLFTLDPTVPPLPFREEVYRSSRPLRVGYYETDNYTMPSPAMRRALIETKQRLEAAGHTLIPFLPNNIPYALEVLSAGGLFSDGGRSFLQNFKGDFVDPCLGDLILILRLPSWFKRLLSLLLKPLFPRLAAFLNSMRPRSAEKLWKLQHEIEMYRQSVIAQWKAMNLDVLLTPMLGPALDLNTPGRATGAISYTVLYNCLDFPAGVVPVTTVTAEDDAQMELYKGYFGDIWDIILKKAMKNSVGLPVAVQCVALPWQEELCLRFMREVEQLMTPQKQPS
Summary of the method: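 SK-N-MC cells stably transfected with rat FAAH cDNA (electroporation, G418 selection); homogenate hydrolyses 3H-anandamide. Reaction 1 h at rt, then filtered through activated charcoal; unbound labelled ethanolamine in filtrate counted by scintillation.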

[2] = target: T2, human FAAH (Homo sapiens, UniProt O00519); assay: Assay Method 1: FAAH assay, hydrolysis of 3H-anandamide by homogenate of SK-N-MC cells transfected with human FAAH; format: biochemical; settings: human FAAH; T84 or transfected SK-N-MC cell homogenate; 3H-AEA tracer 80 nM; rt 1 h; pH 9; read-out: Assay 1 IC50
T2 construct: expressed in transfected cells
T2 sequence (O00519 1-579): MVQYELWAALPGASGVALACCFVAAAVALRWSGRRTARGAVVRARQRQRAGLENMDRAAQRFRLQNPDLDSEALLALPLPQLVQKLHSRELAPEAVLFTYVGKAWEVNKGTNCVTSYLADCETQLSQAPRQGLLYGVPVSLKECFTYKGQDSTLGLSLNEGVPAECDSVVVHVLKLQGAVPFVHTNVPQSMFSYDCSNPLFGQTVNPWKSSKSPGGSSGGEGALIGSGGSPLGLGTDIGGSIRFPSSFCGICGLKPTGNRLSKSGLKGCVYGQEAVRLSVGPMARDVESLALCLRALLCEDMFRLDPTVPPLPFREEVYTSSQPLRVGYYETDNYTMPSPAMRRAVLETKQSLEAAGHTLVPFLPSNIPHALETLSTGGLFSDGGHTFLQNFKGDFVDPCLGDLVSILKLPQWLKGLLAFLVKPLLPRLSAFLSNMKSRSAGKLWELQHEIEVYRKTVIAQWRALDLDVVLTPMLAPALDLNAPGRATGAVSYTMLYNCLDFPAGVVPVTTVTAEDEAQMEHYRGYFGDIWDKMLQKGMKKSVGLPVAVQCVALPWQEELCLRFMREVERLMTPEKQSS
Summary of the method: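 Homogenate of SK-N-MC cells stably expressing human FAAH (G418-selected clones) incubated with compound and 80 nM [1-3H-ethanolamine]anandamide for 1 h at rt. Released 3H-ethanolamine separated from substrate by activated-charcoal filtration, then counted by scintillation.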

| SMILES | IC50 [1] [nM] | IC50 [2] [nM] |
| --- | --- | --- |
| CC(C)c1ccc(CN2CCC(CCCC(=O)c3ncc(C(=O)O)o3)CC2)cc1 [Example 144, 2-{4-[1-(4-Isopropyl-benzyl)-piperidin-4-yl]-butyryl}-oxazole-5-carboxylic acid trifluoroacetic acid salt] | 17 | 75 |
| O=C(O)c1cnc(C(=O)CCCC2CCN(Cc3cccc(Oc4ccccc4)c3)CC2)o1 [Example 145, 2-{4-[1-(3-Phenoxy-benzyl)-piperidin-4-yl]-butyryl}-oxazole-5-carboxylic acid trifluoroacetic acid salt] | 3 | 6 |
| Cc1ccc(S(=O)(=O)N2CCC(CCCC(=O)c3ncc(C(=O)O)o3)CC2)cc1 [Example 146] | 14 | 26 |
| COC(=O)c1cccc(-c2cnc(C(=O)CCCC3CCN(Cc4ccc(C(C)C)cc4)CC3)o2)n1 [Example 147, 6-(2-[4-{1-(4-Isopropyl-benzyl)-piperidin-4-yl]-butyryl}-oxazol-5-yl)-pyridine-2-carboxylic acid methyl ester] | 8 | 18 |
| CC(C)c1ccc(CN2CCC(CCCC(=O)c3ncc(-c4cccc(C(=O)O)n4)o3)CC2)cc1 [Example 148, 6-(2-{4-[1-(4-isopropyl-benzyl)-piperidin-4-yl]-butyryl}-oxazol-5-yl)-pyridine-2-carboxylic acid trifluoroacetic acid salt] | 56 | 60 |
| O=C(O)c1cccc(-c2cnc(C(=O)CCCC3CCN(Cc4cccc(-c5ccccc5)c4)CC3)o2)n1 [Example 149, 6-{2-[4-(1-Biphenyl-3-ylmethyl-piperidin-4-yl)-butyryl]-oxazol-5-yl}-pyridine-2-carboxylic acid trifluoroacetic acid salt] | 2 | 9 |
| O=C(O)c1cccc(-c2cnc(C(=O)CCCC3CCN(Cc4cccc(OC5CCCCC5)c4)CC3)o2)n1 [Example 150, 6-(2-{4-[1-(3-Cyclohexyloxy-benzyl)-piperidin-4-yl]-butyryl}-oxazol-5-yl)-pyridine-2-carboxylic acid trifluoroacetic acid salt] | 7 | 16 |
| Cc1ccc(S(=O)(=O)N2CCC(CCCC(=O)c3ncc(-c4cccc(C(=O)O)n4)o3)CC2)cc1 [Example 151, 6-(2-{4-[1-(Toluene-4-sulfonyl)-piperidin-4-yl]-butyryl}-oxazol-5-yl)-pyridine-2-carboxylic acid trifluoroacetic acid salt] | 25 | 21 |
